From PubChem BioAssay AID248 (DTP/NCI, 2004)
Values joined by “and” are separate entries in the source; they are usually repeats but may differ in a detail not shown here. Equal values may be shown once. Toxic doses and inconclusive results are not listed.

Tested on: L1210 leukemia ip in BDF1 mice, survival T/C
Test: NCI In Vivo Anticancer Drug Screen. Data for tumor model L1210 Leukemia (intraperitoneal) in B6D2F1 (BDF1) mice
Conditions: endpoint: mean survival time, higher = longer survival
Method in brief: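 Value reflects the ratio of survival in compound-treated mice to survival in vehicle-treated controls, with both groups carrying the same transplanted tumor.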

[1] = dose: 100.0 mg/kg/injection, schedule: Q01DX009 (ip), vehicle: saline
[2] = dose: 100.0 mg/kg/injection, schedule: Q04DX003 (ip), vehicle: saline
[3] = dose: 200.0 mg/kg/injection, schedule: Q04DX003 (ip), vehicle: saline
[4] = dose: 400.0 mg/kg/injection, schedule: Q01DX009 (ip), vehicle: saline
[5] = dose: 400.0 mg/kg/injection, schedule: Q04DX003 (ip), vehicle: saline
[6] = dose: 100.0 mg/kg/injection, schedule: Q01DX009 (ip), vehicle: Klucel (hydroxypropylcellulose) (HPC)
[7] = dose: 200.0 mg/kg/injection, schedule: Q01DX009 (ip), vehicle: Klucel (hydroxypropylcellulose) (HPC)
[8] = dose: 400.0 mg/kg/injection, schedule: Q01DX009 (ip), vehicle: Klucel (hydroxypropylcellulose) (HPC)
[9] = dose: 100.0 mg/kg/injection, schedule: Q01DX001 (ip), vehicle: Klucel (hydroxypropylcellulose) (HPC)
[10] = dose: 200.0 mg/kg/injection, schedule: Q01DX001 (ip), vehicle: Klucel (hydroxypropylcellulose) (HPC)
[11] = dose: 400.0 mg/kg/injection, schedule: Q01DX001 (ip), vehicle: Klucel (hydroxypropylcellulose) (HPC)
[12] = dose: 100.0 mg/kg/injection, schedule: Q01DX001 (ip), vehicle: other
[13] = dose: 100.0 mg/kg/injection, schedule: Q01DX009 (ip), vehicle: saline with Tween-80
[14] = dose: 200.0 mg/kg/injection, schedule: Q01DX001 (ip), vehicle: other
[15] = dose: 200.0 mg/kg/injection, schedule: Q01DX009 (ip), vehicle: saline with Tween-80
[16] = dose: 400.0 mg/kg/injection, schedule: Q01DX001 (ip), vehicle: other
[17] = dose: 100.0 mg/kg/injection, schedule: Q04DX003 (ip), vehicle: saline with Tween-80
[18] = dose: 200.0 mg/kg/injection, schedule: Q04DX003 (ip), vehicle: saline with Tween-80
[19] = dose: 50.0 mg/kg/injection, schedule: Q01DX009 (ip), vehicle: saline with Tween-80
[20] = dose: 400.0 mg/kg/injection, schedule: Q04DX003 (ip), vehicle: saline with Tween-80
[21] = dose: 100.0 mg/kg/injection, schedule: Q04DX002 (ip), vehicle: saline with Tween-80
[22] = dose: 200.0 mg/kg/injection, schedule: Q04DX002 (ip), vehicle: saline with Tween-80

COC(=O)C1(C)CCC(c2ccc(OC)cc2)C(CC(=O)O)C1=O (stereo unspecified) was tested, and the T/C [1] was 93 % of control, the T/C [2] was 95 % of control and the T/C [3] was 98 % of control. For the same molecule, the T/C [4] was 90 % of control and the T/C [5] was 93 % of control.

For CCCCCOC(CN)C(Cl)(Cl)Cl (stereo unspecified), the T/C (dose: 25.0 mg/kg/injection, schedule: Q01DX009 (ip), vehicle: saline) was 93 % of control, the T/C (dose: 50.0 mg/kg/injection, schedule: Q01DX009 (ip), vehicle: saline) was 97 % of control and the T/C [2] was 91 % of control.

With Cc1cc(C)c(NC(=O)Nc2ccccc2C)c(C)c1 the T/C [6] was 97 % of control, the T/C (dose: 100.0 mg/kg/injection, schedule: Q04DX003 (ip), vehicle: Klucel (hydroxypropylcellulose) (HPC)) was 108 % of control and the T/C [7] was 103 % of control. For the same molecule, the T/C (dose: 200.0 mg/kg/injection, schedule: Q04DX003 (ip), vehicle: Klucel (hydroxypropylcellulose) (HPC)) was 98 % of control, the T/C [8] was 99 % of control and the T/C (dose: 400.0 mg/kg/injection, schedule: Q04DX003 (ip), vehicle: Klucel (hydroxypropylcellulose) (HPC)) was 94 % of control.

With C/C(=C/CC1CCC2C3=CCC4CC(O)CCC4(C)C3CCC12C)C(C)C(C)C (stereo unspecified) the T/C [9] was 102 % of control, the T/C [10] was 98 % of control and the T/C [11] was 88 % of control.

In the case of O=c1c2ccccc2c2ccccc2n1-c1ccccc1, the T/C [9] is reported as 97 % of control, the T/C [10] is reported as 94 % of control and the T/C [11] is reported as 91 % of control.

For O=C(CCCCC(=O)N(CCO)CCO)N(CCO)CCO, the T/C [2] was 102 % of control, the T/C [3] was 100 % of control and the T/C [5] was 102 % of control.

For C[n+]1ccc(NC(=O)c2ccc(NC(=O)c3ccc(C(=O)Nc4ccc(C(=O)Nc5cc[n+](C)cc5)cc4)cc3)cc2)cc1, the T/C (dose: 62.0 mg/kg/injection, schedule: Q01DX Z (ip), vehicle: carboxymethylcellulose (CMC)) was 103 % of control, the T/C [12] was 97 % of control and the T/C [13] was 105 % of control. The T/C (dose: 100.0 mg/kg/injection, schedule: Q04DX003 (ip), vehicle: other) was 101 % of control, the T/C (dose: 125.0 mg/kg/injection, schedule: Q01DX Z (ip), vehicle: carboxymethylcellulose (CMC)) was 118 % of control and the T/C [14] was 104 % of control. For the same molecule, the T/C [15] was 115 % of control, the T/C (dose: 200.0 mg/kg/injection, schedule: Q04DX003 (ip), vehicle: other) was 103 % of control and the T/C [16] was 103 % of control. For the same molecule, the T/C (dose: 400.0 mg/kg/injection, schedule: Q01DX009 (ip), vehicle: saline with Tween-80) was 114 % of control, the T/C (dose: 400.0 mg/kg/injection, schedule: Q04DX003 (ip), vehicle: other) was 98 % of control and the T/C (dose: 500.0 mg/kg/injection, schedule: Q01DX Z (ip), vehicle: carboxymethylcellulose (CMC)) was 152 % of control.

For O=P(c1ccc[nH]1)(c1ccc[nH]1)c1ccc[nH]1, the T/C (dose: 100.0 mg/kg/injection, schedule: Q04DX002 (ip), vehicle: gum acacia) was 101 % of control, the T/C (dose: 200.0 mg/kg/injection, schedule: Q04DX002 (ip), vehicle: gum acacia) was 93 % of control and the T/C (dose: 400.0 mg/kg/injection, schedule: Q04DX002 (ip), vehicle: gum acacia) was 108 % of control.

In the case of Cc1ccccc1C(=O)c1ccccc1C, the T/C (dose: 50.0 mg/kg/injection, schedule: Q01DX001 (ip), vehicle: other) is reported as 118 % of control, the T/C [12] is reported as 102 % of control and the T/C [14] is reported as 113 % of control. For the same molecule, the T/C [16] was 107 % of control.

For S=C1SCN(c2ccccc2)CN1c1ccccc1, the T/C [17] was 88 % of control and the T/C [18] was 88 % of control.

CC/C=N/Nc1ccnc(SCc2ccccc2)n1 was tested, and the T/C (dose: 100.0 mg/kg/injection, schedule: Q04DX003 (ip), vehicle: gum acacia) was 103 % of control, the T/C (dose: 200.0 mg/kg/injection, schedule: Q04DX003 (ip), vehicle: gum acacia) was 97 % of control and the T/C (dose: 400.0 mg/kg/injection, schedule: Q04DX003 (ip), vehicle: gum acacia) was 94 % of control.

With C=CCC(B1OCCO1)B1OCCO1 the T/C (dose: 100.0 mg/kg/injection, schedule: Q04DX003 (ip), vehicle: saline sonified) was 106 % of control, the T/C (dose: 200.0 mg/kg/injection, schedule: Q04DX003 (ip), vehicle: saline sonified) was 95 % of control and the T/C (dose: 400.0 mg/kg/injection, schedule: Q04DX003 (ip), vehicle: saline sonified) was 110 % of control.

With O=C1NC(=O)C2(CCCC2)N1 the T/C (dose: 100.0 mg/kg/injection, schedule: Q01DX001 (ip), vehicle: saline) was 102 % of control, the T/C (dose: 200.0 mg/kg/injection, schedule: Q01DX001 (ip), vehicle: saline) was 108 % of control and the T/C (dose: 400.0 mg/kg/injection, schedule: Q01DX001 (ip), vehicle: saline) was 102 % of control.

For COc1ccccc1OC(=O)CCl, the T/C (dose: 25.0 mg/kg/injection, schedule: Q01DX009 (ip), vehicle: saline with Tween-80) was 90 % of control, the T/C [19] was 93 % of control and the T/C [13] was 93 % of control.

With COC(OC)c1nc(N)nc(N)c1-c1ccc(F)cc1 the T/C [17] was 94 % of control, the T/C [18] was 96 % of control and the T/C [20] was 96 % of control.

For CCCC(CCC)(C(=O)OCCOCCCl)c1cccc2ccccc12, the T/C [21] was 89 % of control, the T/C [22] was 99 % of control and the T/C (dose: 400.0 mg/kg/injection, schedule: Q04DX002 (ip), vehicle: saline with Tween-80) was 95 % of control.

In the case of CC1(C)OCC(C2OC(N)C3OC(C)(C)OC32)O1 (stereo unspecified), the T/C (dose: 100.0 mg/kg/injection, schedule: Q04DX002 (ip), vehicle: saline) is reported as 97 % of control, the T/C (dose: 200.0 mg/kg/injection, schedule: Q04DX002 (ip), vehicle: saline) is reported as 113 % of control and the T/C (dose: 400.0 mg/kg/injection, schedule: Q04DX002 (ip), vehicle: saline) is reported as 103 % of control.

COc1cc(/C=N/N2C(=O)CSC2=S)ccc1OCc1ccccc1 was tested, and the T/C [13] was 89 % of control, the T/C [17] was 93 % of control and the T/C [15] was 91 % of control. For the same molecule, the T/C [18] was 93 % of control and the T/C [20] was 86 % of control.

For O=C(CNC(=O)Nc1nccs1)N/N=C/c1cccc([N+](=O)[O-])c1, the T/C [6] was 97 % of control, the T/C [7] was 100 % of control and 90 % of control and the T/C [8] was 97 % of control.

For O=C1OC(=O)c2ccc(S)c3cccc1c23, the T/C [19] was 96 % of control, the T/C [13] was 102 % of control and the T/C [15] was 94 % of control and 101 % of control.

For COC1(c2ccc(Cl)s2)OC1(C)C (stereo unspecified), the T/C [1] was 100 % of control, the T/C [2] was 100 % of control and the T/C (dose: 200.0 mg/kg/injection, schedule: Q01DX009 (ip), vehicle: saline) was 96 % of control. For the same molecule, the T/C [3] was 105 % of control, the T/C [4] was 105 % of control and the T/C [5] was 96 % of control.

For O=C(CCCl)[O][Pb]([O]C(=O)CCCl)([c]1ccccc1)[c]1ccccc1, the T/C [2] was 108 % of control.

For OC(C/C=C/c1ccccc1)c1ccccc1 (stereo unspecified), the T/C (dose: 50.0 mg/kg/injection, schedule: Q01DX009 (ip), vehicle: Klucel (hydroxypropylcellulose) (HPC)) was 91 % of control and the T/C [6] was 97 % of control.

Cc1cccc(C(=O)O)[n+]1[O-] was tested, and the T/C (dose: 50.0 mg/kg/injection, schedule: Q01DX001 (ip), vehicle: carboxymethylcellulose (CMC)) was 100 % of control, the T/C (dose: 100.0 mg/kg/injection, schedule: Q01DX001 (ip), vehicle: carboxymethylcellulose (CMC)) was 95 % of control and the T/C (dose: 200.0 mg/kg/injection, schedule: Q01DX001 (ip), vehicle: carboxymethylcellulose (CMC)) was 98 % of control. For the same molecule, the T/C (dose: 400.0 mg/kg/injection, schedule: Q01DX001 (ip), vehicle: carboxymethylcellulose (CMC)) was 100 % of control.

COc1ccc(C(=O)c2ccn[nH]2)cc1 was tested, and the T/C (dose: 75.0 mg/kg/injection, schedule: Q04DX003 (ip), vehicle: Klucel (hydroxypropylcellulose) (HPC)) was 97 % of control, the T/C (dose: 150.0 mg/kg/injection, schedule: Q04DX003 (ip), vehicle: Klucel (hydroxypropylcellulose) (HPC)) was 100 % of control and the T/C (dose: 300.0 mg/kg/injection, schedule: Q04DX003 (ip), vehicle: Klucel (hydroxypropylcellulose) (HPC)) was 99 % of control.

In the case of c1ccc(C[P+](Cc2ccccc2)(c2ccccc2)c2ccccc2)cc1, the T/C (dose: 75.0 mg/kg/injection, schedule: Q01DX001 (ip), vehicle: saline) is reported as 94 % of control.

In the case of CCCN(CCC)S(=O)(=O)CCC, the T/C (dose: 50.0 mg/kg/injection, schedule: Q04DX002 (ip), vehicle: saline with Tween-80) is reported as 97 % of control, the T/C [21] is reported as 97 % of control and the T/C [22] is reported as 101 % of control.
